Results on 13 compounds are retold here after ChEMBL document CHEMBL2375267, “A comprehensive review on synthesis and designing aspects of coumarin derivatives as monoamine oxidase inhibitors for depression and Alzheimer's disease” (Bioorg Med Chem, 2013).

The term IC50 denotes the point on the concentration scale where inhibition reaches its midpoint. Low values mean greater potency, high ones weaker potency.

Assay [1] is described as follows: Inhibition of mouse brain monoamine oxidase.
In assay [2] the target is T1, Amine oxidase [flavin-containing] A (Mus musculus, UniProt Q64133).
T1 sequence (Q64133 whole entry): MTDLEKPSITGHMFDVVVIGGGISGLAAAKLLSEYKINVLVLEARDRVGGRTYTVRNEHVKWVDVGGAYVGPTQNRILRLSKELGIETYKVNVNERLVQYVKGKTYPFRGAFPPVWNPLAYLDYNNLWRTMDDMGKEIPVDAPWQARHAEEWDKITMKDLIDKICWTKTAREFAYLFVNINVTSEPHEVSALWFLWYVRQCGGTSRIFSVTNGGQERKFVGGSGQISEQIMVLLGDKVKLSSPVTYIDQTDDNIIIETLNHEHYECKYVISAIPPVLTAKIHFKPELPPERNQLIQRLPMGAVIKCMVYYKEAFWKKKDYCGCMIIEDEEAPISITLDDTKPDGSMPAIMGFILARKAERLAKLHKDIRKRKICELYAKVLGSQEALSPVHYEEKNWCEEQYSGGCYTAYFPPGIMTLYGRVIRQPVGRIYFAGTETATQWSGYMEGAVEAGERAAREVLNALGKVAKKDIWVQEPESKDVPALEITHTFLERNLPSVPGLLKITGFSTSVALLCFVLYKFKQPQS
As to the kind of experiment: Inhibition of mouse brain MAO-A.

Assay [3] has as its target T2, Amine oxidase [flavin-containing] B (Mus musculus, UniProt Q8BW75).
T2 sequence (Q8BW75 whole entry): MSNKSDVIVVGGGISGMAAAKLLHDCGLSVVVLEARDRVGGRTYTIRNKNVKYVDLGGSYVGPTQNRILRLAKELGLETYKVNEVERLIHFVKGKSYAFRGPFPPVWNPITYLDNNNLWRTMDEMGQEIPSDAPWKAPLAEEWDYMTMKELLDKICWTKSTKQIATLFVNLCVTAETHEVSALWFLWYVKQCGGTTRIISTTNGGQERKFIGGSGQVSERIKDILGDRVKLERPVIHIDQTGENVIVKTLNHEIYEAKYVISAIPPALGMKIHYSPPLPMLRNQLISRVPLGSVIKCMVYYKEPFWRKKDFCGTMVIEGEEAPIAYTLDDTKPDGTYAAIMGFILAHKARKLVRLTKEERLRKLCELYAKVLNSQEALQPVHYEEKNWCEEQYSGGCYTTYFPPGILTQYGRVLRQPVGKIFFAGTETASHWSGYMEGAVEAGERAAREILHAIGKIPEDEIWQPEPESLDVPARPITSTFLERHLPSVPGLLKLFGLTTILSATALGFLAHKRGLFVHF
Put plainly: Inhibition of mouse brain MAO-B.

Assay [4] can be described thus: Inhibition of mouse brain monoamine oxidase using kynuramine as substrate by fluorometric analysis.
Assay [5] has as its target T3, Amine oxidase [flavin-containing] B (Homo sapiens, UniProt P27338).
T3 sequence (P27338 whole entry): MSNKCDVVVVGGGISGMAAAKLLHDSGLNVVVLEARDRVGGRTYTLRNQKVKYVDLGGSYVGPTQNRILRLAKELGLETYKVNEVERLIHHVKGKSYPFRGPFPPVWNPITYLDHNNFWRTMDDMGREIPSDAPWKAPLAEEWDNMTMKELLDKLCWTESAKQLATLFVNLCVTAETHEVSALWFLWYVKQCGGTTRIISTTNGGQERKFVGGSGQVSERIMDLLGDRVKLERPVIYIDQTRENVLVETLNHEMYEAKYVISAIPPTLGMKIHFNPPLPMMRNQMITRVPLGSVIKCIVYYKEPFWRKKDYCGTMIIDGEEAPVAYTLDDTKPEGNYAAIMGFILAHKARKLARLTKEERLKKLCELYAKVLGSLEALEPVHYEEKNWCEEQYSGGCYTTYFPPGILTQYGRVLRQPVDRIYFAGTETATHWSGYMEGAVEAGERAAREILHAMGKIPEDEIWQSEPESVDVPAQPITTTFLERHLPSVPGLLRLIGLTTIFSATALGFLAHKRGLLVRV
As to the kind of experiment: Inhibition of MAO-B (unknown origin).

The species named for assay [6] is Homo sapiens. As to the kind of experiment: Selectivity index, ratio of pIC50 for MAO-B (unknown origin) to pIC50 for MAO-A (unknown origin).
The species named for assay [7] is Homo sapiens. As to the kind of experiment: Selectivity ratio for MAO-A (unknown origin) over MAO-B (unknown origin).
For assay [8], the target named is T4, Amine oxidase [flavin-containing] A (Homo sapiens, UniProt P21397).
T4 sequence (P21397 whole entry): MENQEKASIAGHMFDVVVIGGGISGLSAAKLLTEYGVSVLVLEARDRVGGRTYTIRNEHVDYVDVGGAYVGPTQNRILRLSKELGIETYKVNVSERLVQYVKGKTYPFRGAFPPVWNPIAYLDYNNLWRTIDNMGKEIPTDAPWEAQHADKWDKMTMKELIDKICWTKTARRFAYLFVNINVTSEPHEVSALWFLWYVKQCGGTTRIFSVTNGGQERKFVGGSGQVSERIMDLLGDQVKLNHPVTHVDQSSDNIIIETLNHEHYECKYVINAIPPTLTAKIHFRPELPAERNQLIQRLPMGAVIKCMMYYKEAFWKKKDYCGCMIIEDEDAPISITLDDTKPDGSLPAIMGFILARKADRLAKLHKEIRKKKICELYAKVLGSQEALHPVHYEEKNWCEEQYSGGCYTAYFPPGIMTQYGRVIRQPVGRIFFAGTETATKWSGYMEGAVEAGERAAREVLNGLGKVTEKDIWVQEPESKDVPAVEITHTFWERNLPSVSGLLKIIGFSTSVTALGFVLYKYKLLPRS
As to the kind of experiment: Inhibition of MAO-A (unknown origin).

In the case of `C=C(C)[C@H](O)CC/C(C)=C/COc1ccc2ccc(=O)oc2c1`, the IC50 in assay [1] was found to be 0.7 µM; in assay [2], 1.3 µM; in assay [3], 0.5 µM.
In turn, `COc1cc2oc(=O)ccc2cc1O` [ISOSCOPOLETIN] had an IC50 in assay [4] of 32.2 µM.
`O=C(O)c1cc2ccccc2oc1=O` [COUMARIN-3-CARBOXYLIC ACID]: in assay [5], the IC50 was 0.0174 µM. In addition, in assay [6], the Ratio pIC50 is 2.94.
In assay [4], `COc1cc2ccc(=O)oc2cc1O` [SCOPOLETIN] came in with an IC50 of 45 µM.
In the case of `CC(C)=CCC/C(C)=C/COc1ccc2ccc(=O)oc2c1`, the IC50 turned out to be 1.7 µM in assay [1], 3.46e-05 µM in assay [2] and 0.6 µM in assay [3].
For the compound `CC1(C)OC(/C=C/COc2ccc3ccc(=O)oc3c2)=CC1=O`, in assay [7], the Selectivity ratio stood at 850.
Turning to `C/C=C(/C)C(=O)O[C@H]1[C@@H](OC(C)=O)c2c(ccc3ccc(=O)oc23)OC1(C)C`, the midpoint of inhibition in assay [1], the IC50, lay at 27.4 µM.
Take `O=c1ccc2cc(O)c(O)cc2o1` [ESCULETIN]: the IC50 in assay [4] came to 31.1 µM.
Turning to `COc1c(OCC=C(C)C)ccc2ccc(=O)oc12` [LACINARTIN], the IC50 in assay [1] was determined as 9.2 µM; in assay [2], 5.7 µM; in assay [3], 28.6 µM.
With `O=C(Cl)c1cc2cc(Cl)ccc2oc1=O`, 0.01 µM corresponded to half-maximal inhibition in assay [5] (IC50).
Take `COc1c2ccoc2cc2oc(=O)ccc12` [BERGAPTEN]: the IC50 in assay [8] and in assay [1] was 13.8 µM in each case.
As for `O=c1ccc2cc3ccoc3cc2o1` [PSORALEN], the IC50 stood at 21.3 µM in assay [8] and 35.8 µM in assay [1].
In turn, `Cc1ccc2oc(=O)c(C(=O)O)cc2c1` showed an IC50 in assay [5] of 0.0191 µM. Further, in assay [6], the Ratio pIC50 was 2.8.
